Data: PMC5962959 (ChemMedChem, 2017)

How the values were obtained:
[1] = molecular target: focal adhesion kinase (FAK); details: patent literature, Supplementary Table 2; ref 13p; cited from earlier work
[2] = system: insulin-like growth factor 1 receptor (IGF-1R); details: cited from earlier work
insulin receptor = details: read-out: insulin receptor IC50; Supplementary Table 2; ref 13a; cited from earlier work
CLK2 = details: read-out: CLK2 IC50; Supplementary Table 2; ref 13a; cited from earlier work
LTK = details: read-out: LTK IC50; Supplementary Table 2; ref 13a; cited from earlier work
full-length human TSSK2 = molecular target: T1, full-length human TSSK2 (Homo sapiens, UniProt Q96PF2); assay: Mobility shift assay: TSSK2 phosphorylation of 5-FAM-GS peptide; assay type: biochemical; details: for TSSK2 inhibitor confirmed in concentration-response experiments after HTS: HTS at 10 μM, cherry-picked compounds from DMSO stocks; for fold reduction in TSSK2 activity: relative to compound 18
T1 sequence (Q96PF2 1-358): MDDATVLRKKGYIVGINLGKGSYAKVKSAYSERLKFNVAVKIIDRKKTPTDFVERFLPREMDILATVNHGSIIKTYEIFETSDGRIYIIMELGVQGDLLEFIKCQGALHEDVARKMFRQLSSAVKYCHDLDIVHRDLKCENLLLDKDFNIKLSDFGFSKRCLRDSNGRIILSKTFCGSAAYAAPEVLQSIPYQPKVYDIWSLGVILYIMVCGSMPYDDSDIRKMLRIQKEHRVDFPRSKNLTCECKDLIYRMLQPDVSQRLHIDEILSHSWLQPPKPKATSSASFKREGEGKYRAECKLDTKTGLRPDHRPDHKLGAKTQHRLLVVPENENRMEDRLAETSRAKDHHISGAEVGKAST

TSSK3 = assay: TSSK family member inhibition, TSSK3; assay type: biochemical
TSSK1 = molecular target: T2, TSSK1 (Homo sapiens, UniProt Q9BXA7); assay: TSSK family member inhibition, TSSK1; assay type: biochemical
T2 sequence (Q9BXA7 1-367): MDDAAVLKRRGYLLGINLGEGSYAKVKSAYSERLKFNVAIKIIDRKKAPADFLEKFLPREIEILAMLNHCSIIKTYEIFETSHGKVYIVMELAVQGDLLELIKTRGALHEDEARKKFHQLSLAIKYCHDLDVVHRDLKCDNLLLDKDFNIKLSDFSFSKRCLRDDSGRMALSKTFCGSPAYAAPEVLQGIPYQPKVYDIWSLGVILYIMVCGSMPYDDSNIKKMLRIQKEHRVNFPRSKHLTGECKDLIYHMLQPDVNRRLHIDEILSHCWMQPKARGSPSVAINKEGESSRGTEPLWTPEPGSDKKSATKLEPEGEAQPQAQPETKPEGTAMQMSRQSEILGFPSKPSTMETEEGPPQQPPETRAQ

369 wild-type kinases = assay: Kinome profiling at Reaction Biology Corp.; assay type: biochemical; details: 100 nM
TSSK6 = TSSK6 (Homo sapiens, UniProt Q9BXA6); assay: TSSK family member inhibition, TSSK6; assay type: biochemical
TSSK6, sequence (Q9BXA6 whole entry): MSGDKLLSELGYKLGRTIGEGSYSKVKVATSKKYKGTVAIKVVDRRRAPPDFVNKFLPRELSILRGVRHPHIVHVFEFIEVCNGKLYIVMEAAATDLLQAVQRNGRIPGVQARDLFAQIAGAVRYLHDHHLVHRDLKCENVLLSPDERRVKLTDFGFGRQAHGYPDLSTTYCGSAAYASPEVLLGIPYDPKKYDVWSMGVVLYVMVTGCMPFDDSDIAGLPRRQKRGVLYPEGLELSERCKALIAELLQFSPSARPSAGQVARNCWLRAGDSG

FLT3 = details: ref 13b; cited from earlier work
Tie2 = details: ref 13b; cited from earlier work
[3] = system: anaplastic lymphoma kinase (ALK); details: cited from earlier work
LRRK2 = details: ref 13c; cited from earlier work
[4] = system: kinases (PKIS profiling panel); details: at 100 nM; ref profiling data provided by GSK supporting the PKIS collections; cited from earlier work
[5] = system: insulin-like growth factor 1 receptor (IGF-1R); assay: Reported IGF-1R inhibition; assay type: biochemical
GRK1 = assay: Reported GRK inhibition; assay type: biochemical; details: GRK data ref 10d

Compound: CNS(=O)(=O)c1ccccc1Nc1nc(Nc2ccc(N3CCN(C)CC3)cc2OC)ncc1Br [Compound 17]
- FAK IC50 [1]: low nanomolar
- potency for inhibiting IGF-1R ([2]; compared with FAK, ref 13p): substantially less potent

Compound: COc1cc(N2CCC(O)CC2)ccc1Nc1nc(Nc2ccccc2S(=O)(=O)C(C)C)c2[nH]cnc2n1 [Compound 35]
- IC50 (insulin receptor): 20 to 40 nM
- IC50 ([2]; read-out: IGF-1R IC50, Supplementary Table 2, ref 13a): 20 to 40 nM
- IC50 (CLK2): 20 to 40 nM
- IC50 (LTK): 20 to 40 nM

Compound: CNS(=O)(=O)c1ccccc1Nc1nc(Nc2ccc(N3CCN(C)CC3)cc2OC)ncc1Cl [Compound 18]
- FAK IC50 [1]: low nanomolar

Compound: O=c1[nH]c2ccc(Cl)cc2c(N[C@@H]2CN3CCC2CC3)c1-c1nc2ccccc2[nH]1 [CHIR-124]
- TSSK2 inhibitor confirmed in concentration-response experiments after HTS (full-length human TSSK2): active

Compound: CCn1c(-c2nonc2N)nc2c(C#CC(C)(C)O)nc(O[C@@H](CN)c3ccccc3)cc21 [GSK1007102B]
- TSSK2 inhibitor confirmed in concentration-response experiments after HTS (full-length human TSSK2): active

Compound: CC(=O)NCC(=O)N1[C@@H]2CC[C@H]1c1ccc(Nc3ncc(C(F)(F)F)c(NC4CCC4)n3)cc12 [PF-03814735]
- TSSK2 inhibitor confirmed in concentration-response experiments after HTS (full-length human TSSK2): active

Compound: CNS(=O)(=O)c1ccccc1Nc1nc(Nc2ccc(C3CCN(C)CC3)cc2OC)ncc1Cl [Compound 19, 2-[[5-chloro-2-[2-methoxy-4-(1-methylpiperidin-4-yl)anilino]pyrimidin-4-yl]amino]-N-methylbenzenesulfonamide]
- fold more potent at TSSK1 than TSSK3 (TSSK3): 800 fold
- fold reduction in TSSK2 activity (full-length human TSSK2): < 2 fold
- fold more potent at inhibiting TSSK1 than TSSK2 (TSSK1): > 40 fold
- rank order potency at TSSK isoforms (TSSK1): TSSK1 > TSSK2 > TSSK3 > TSSK6
- number of 369 kinases inhibited to a greater extent than TSSK2 (369 wild-type kinases): 62
- activity at TSSK6 (TSSK6): almost inactive
- fold selective for TSSK1 over TSSK6 (TSSK6): ~100,000 fold

Compound: COc1ccc([C@@H]2CC(=O)c3c(O)cc(O[C@@H]4O[C@H](CO[C@@H]5O[C@@H](C)[C@H](O)[C@@H](O)[C@H]5O)[C@@H](O)[C@H](O)[C@H]4O)cc3O2)cc1O [hesperidin]
- TSSK2 inhibitor confirmed in concentration-response experiments after HTS (full-length human TSSK2): active

Compound: COc1cc(N2CCC(N3CCN(C)CC3)CC2)ccc1Nc1ncc(Cl)c(Nc2ccccc2S(=O)(=O)C(C)C)n1 [Compound 22]
- activity at FLT3 (FLT3): low nanomolar
- activity at Tie2 (Tie2): low nanomolar
- activity at ALK [3]: low nanomolar
- fold reduction in TSSK2 activity (full-length human TSSK2): ~ 2 fold
- activity at LRRK2 (LRRK2): low nanomolar

Compound: COc1cc2c(cc1Nc1nc(Nc3ccsc3C(N)=O)c3cc[nH]c3n1)N(C(=O)CN(C)C)CCC2(C)C [Compound 10]
- number of kinases inhibited by > 50% [4]: 15 – 20
- fold more potent inhibitors of IGF-1 than of TSSK2 [5]: ≥ 100 fold
- fold selective for TSSK2 over GRK1 (GRK1): > 5 fold
